Measured values as given in US20240245658A1, “TAAR1 AND SEROTONIN MODULATORS, AND PHARMACEUTICAL COMPOSITIONS, AND METHODS OF USE THEREOF” (Sunovion Pharmaceuticals Inc., priority 2021, published 2024).
Read-outs that look alike come from different tables or passages of the source.

What was measured:
Assay type in all cases: cell-based
human TAAR1 receptors = biological target: T1, human TAAR1 receptors (Homo sapiens, UniProt Q96RJ0); assay: TAAR1 Agonism Assay: cAMP HTRF assay for Gs coupled receptor TAAR1 (Euroscreen FAST-0987C); settings: CHO-K1 cells expressing human TAAR1, cAMP HTRF
T1 construct: host or cells: CHO-K1
T1 sequence (Q96RJ0 1-339): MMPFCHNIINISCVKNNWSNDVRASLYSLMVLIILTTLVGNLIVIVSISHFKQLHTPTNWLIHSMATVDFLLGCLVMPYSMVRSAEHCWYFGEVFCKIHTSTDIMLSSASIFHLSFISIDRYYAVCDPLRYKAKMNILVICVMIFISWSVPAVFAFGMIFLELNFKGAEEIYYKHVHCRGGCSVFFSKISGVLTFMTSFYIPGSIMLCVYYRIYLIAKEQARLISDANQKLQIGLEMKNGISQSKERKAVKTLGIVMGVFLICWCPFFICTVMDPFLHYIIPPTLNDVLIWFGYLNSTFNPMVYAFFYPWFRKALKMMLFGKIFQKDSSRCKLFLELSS
Outline: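 cAMP accumulation detected by HTRF fluorescence ratio, reagents added in lysis buffer and incubated 1 h at about room temperature. Beforehand, cells (about 3,000 per well) sat with test compound at ten concentrations from 0.3 to 10,000 nM in duplicate for roughly 30 min at about room temperature; tyramine dose-response run alongside.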

human 5-HT2A receptor = biological target: T2, human 5-HT2A receptor (Homo sapiens, UniProt P28223); assay: 5HT2A Antagonism Assay (Euroscreen FAST-05051), IP-One HTRF
T2 construct: host or cells: CHO-K1
T2 sequence (P28223 whole entry): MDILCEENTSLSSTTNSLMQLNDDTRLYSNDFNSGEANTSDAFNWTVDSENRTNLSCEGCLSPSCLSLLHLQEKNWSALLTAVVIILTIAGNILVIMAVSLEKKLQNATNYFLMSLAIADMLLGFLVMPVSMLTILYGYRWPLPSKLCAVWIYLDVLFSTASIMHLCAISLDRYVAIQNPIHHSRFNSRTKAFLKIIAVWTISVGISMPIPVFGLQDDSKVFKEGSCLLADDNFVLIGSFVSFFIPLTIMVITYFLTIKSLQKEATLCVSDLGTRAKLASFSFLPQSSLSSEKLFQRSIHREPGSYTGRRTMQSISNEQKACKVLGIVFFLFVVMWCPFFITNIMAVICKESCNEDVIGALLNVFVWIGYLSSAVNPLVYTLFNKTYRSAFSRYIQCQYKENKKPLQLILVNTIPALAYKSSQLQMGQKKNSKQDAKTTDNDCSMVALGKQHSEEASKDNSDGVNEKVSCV
Outline: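 CHO-K1 cells expressing receptor, 20,000/well, co-incubated with test compound and reference agonist at its EC80 for 60 min at 37 °C. IP1 accumulation read by HTRF after ~1 h detection at room temperature. Compounds tested in duplicate at 0.3–10,000 nM.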

human 5-HT7 receptor = biological target: T3, human 5-HT7 receptor (Homo sapiens, UniProt P34969); assay: 5HT7 Antagonism Assay (Euroscreen FAST-0499C), cAMP HTRF; settings: CHO-K1 cells expressing human 5-HT7, reference agonist at EC80, cAMP HTRF
T3 construct: host or cells: CHO-K1
T3 sequence (P34969 whole entry): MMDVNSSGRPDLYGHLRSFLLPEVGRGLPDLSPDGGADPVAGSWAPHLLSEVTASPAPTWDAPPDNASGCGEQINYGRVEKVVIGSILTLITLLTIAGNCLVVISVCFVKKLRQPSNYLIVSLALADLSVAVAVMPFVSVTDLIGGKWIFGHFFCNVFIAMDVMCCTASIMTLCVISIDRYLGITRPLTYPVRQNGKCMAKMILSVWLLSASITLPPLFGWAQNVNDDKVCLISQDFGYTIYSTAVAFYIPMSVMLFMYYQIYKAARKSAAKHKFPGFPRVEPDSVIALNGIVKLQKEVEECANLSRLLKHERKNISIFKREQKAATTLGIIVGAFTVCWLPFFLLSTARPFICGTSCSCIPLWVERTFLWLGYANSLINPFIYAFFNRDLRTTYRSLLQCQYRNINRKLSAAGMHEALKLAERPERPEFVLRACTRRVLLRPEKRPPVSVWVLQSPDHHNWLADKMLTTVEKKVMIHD
Outline: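 CHO-K1 cells expressing human 5-HT7, 3000 per well in Krebs-Ringer HEPES with 1 mM IBMX, were exposed for 30 minutes at room temperature to compound plus reference agonist at its EC80. cAMP was read by HTRF after 1 hour; compounds were tested in duplicate from 0.3 to 10,000 nM.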

[1] = 5-HT2A (IC50), CHO-K1 cells expressing human 5-HT2A, reference agonist at EC80, IP-One
[2] = read-out: 5-HT2A (IC50), CHO-K1 cells expressing human 5-HT2A, reference agonist at EC80, IP-One
[3] = CHO-K1 cells expressing human 5-HT2A, reference agonist at EC80, IP-One, read-out: 5-HT2A (IC50)

SMILES | EC50 (human TAAR1 receptors) [µM] | IC50 (human 5-HT2A receptor; [1]) [µM] | IC50 (human 5-HT7 receptor) [µM] | IC50 (human 5-HT2A receptor; [2]) [µM] | IC50 (human 5-HT2A receptor; [3]) [µM]
CNCC1Cc2ncccc2Oc2ccc(F)cc21 (single isomer, unassigned) [Compound 165, (R*)-(8-fluoro-10,11-dihydrobenzo[6,7]oxepino[3,2-b]pyridin-10-yl)-N-methylmethanamine] | > 10 | < 1 | ≥ 10 | – | –
CNCC1Cc2ncccc2Oc2ccc(F)cc21 (single isomer, unassigned) [Compound 166, (S*)-(8-fluoro-10,11-dihydrobenzo[6,7]oxepino[3,2-b]pyridin-10-yl)-N-methylmethanamine] | < 1 | – | 1 to 10 | < 1 | –
NCC1Cc2ncccc2Oc2ccc(Cl)cc21 (single isomer, unassigned) [Compound 167, (R*)-(8-chloro-10,11-dihydrobenzo[6,7]oxepino[3,2-b]pyridin-10-yl)methanamine] | < 1 | 1 to 10 | ≥ 10 | – | –
CNCC1Cc2ncccc2Oc2ccc(Cl)cc21 (single isomer, unassigned) [Compound 170, (S*)-1-(8-chloro-10,11-dihydrobenzo[6,7]oxepino[3,2-b]pyridin-10-yl)-N-methylmethanamine] | < 1 | < 1 | < 1 | – | –
NCC1Cc2ncccc2Oc2cc(Cl)ccc21 (single isomer, unassigned) [Compound 171, (R*)-(7-chloro-10,11-dihydrobenzo[6,7]oxepino[3,2-b]pyridin-10-yl)methanamine] | 1 to 10 | < 1 | ≥ 10 | – | –
NCC1Cc2ncccc2Oc2cc(Cl)ccc21 (single isomer, unassigned) [Compound 172, (S*)-(7-chloro-10,11-dihydrobenzo[6,7]oxepino[3,2-b]pyridin-10-yl)methanamine] | < 1 | – | ≥ 10 | < 1 | –
CNCC1Cc2ncccc2Oc2cc(Cl)ccc21 (single isomer, unassigned) [Compound 173, (R*)-1-(7-chloro-10,11-dihydrobenzo[6,7]oxepino[3,2-b]pyridin-10-yl)-N-methylmethanamine] | > 10 | – | ≥ 10 | – | < 1
CNCC1Cc2ncccc2Oc2cc(Cl)ccc21 (single isomer, unassigned) [Compound 174, (S*)-1-(7-chloro-10,11-dihydrobenzo[6,7]oxepino[3,2-b]pyridin-10-yl)-N-methylmethanamine] | > 10 | – | 1 to 10 | – | < 1
NCC1Cc2ncccc2Oc2c(F)cccc21 (single isomer, unassigned) [Compound 176, (S*)-(6-fluoro-10,11-dihydrobenzo[6,7]oxepino[3,2-b]pyridin-10-yl)methanamine] | < 1 | > 10 | ≥ 10 | – | –
NCC1Cc2ncc(Cl)cc2Oc2ccccc21 (single isomer, unassigned) [Compound 179, (R*)-(3-chloro-10,11-dihydrobenzo[6,7]oxepino[3,2-b]pyridin-10-yl)methanamine] | 1 to 10 | 1 to 10 | ≥ 10 | – | –
NCC1Cc2ncc(Cl)cc2Oc2ccccc21 (single isomer, unassigned) [Compound 180, (S*)-(3-chloro-10,11-dihydrobenzo[6,7]oxepino[3,2-b]pyridin-10-yl)methanamine] | < 1 | – | ≥ 10 | 1 to 10 | –
C[C@@H]1c2ccccc2Oc2cccnc2[C@@H]1CN (stereo in doubt) [Compound 112, ((10S*,11S*)-10-methyl-10,11-dihydrobenzo[6,7]oxepino[3,2-b]pyridin-11-yl)methanamine] | < 1 | > 10 | ≥ 10 | – | –
C[C@@H]1c2ccccc2Oc2cccnc2[C@H]1CN (stereo in doubt) [Compound 114, ((10S*,11R*)-10-methyl-10,11-dihydrobenzo[6,7]oxepino[3,2-b]pyridin-11-yl)methanamine] | < 1 | 1 to 10 | ≥ 10 | – | –
C[C@H]1c2ccccc2Oc2cccnc2[C@@H]1CN (stereo in doubt) [Compound 115, ((10R*,11S*)-10-methyl-10,11-dihydrobenzo[6,7]oxepino[3,2-b]pyridin-11-yl)methanamine] | 1 to 10 | > 10 | ≥ 10 | – | –
CNC[C@H]1c2ncccc2Oc2ccccc2[C@H]1C (stereo in doubt) [Compound 116, ((10S*,11S*)-10-methyl-10,11-dihydrobenzo[6,7]oxepino[3,2-b]pyridin-11-yl)-N-methylmethanamine] | < 1 | 1 to 10 | ≥ 10 | – | –
CNC[C@@H]1c2ncccc2Oc2ccccc2[C@H]1C (stereo in doubt) [Compound 118, ((10S*,11R*)-10-methyl-10,11-dihydrobenzo[6,7]oxepino[3,2-b]pyridin-11-yl)-N-methylmethanamine] | < 1 | 1 to 10 | ≥ 10 | – | –
CNC[C@H]1c2ncccc2Oc2ccccc2[C@@H]1C (stereo in doubt) [Compound 119, ((10R*,11S*)-10-methyl-10,11-dihydrobenzo[6,7]oxepino[3,2-b]pyridin-11-yl)-N-methylmethanamine] | 1 to 10 | 1 to 10 | ≥ 10 | – | –
NCC1Oc2ccccc2Cc2ccccc21 (stereo not drawn) [Compound 77, (6,11-dihydrodibenzo[b,e]oxepin-6-yl)methanamine] | < 1 | – | ≥ 10 | – | 1 to 10
